These are literature values, as cited in PMC6447837 (Cancer Science, 2019).

Molecules are shown by their SMILES.

Usually IC50 stands for the concentration that inhibits the measured activity by half.

The data set has as its system DU145. Conditions: DU145, Prostate carcinoma; ref Zhang et al (2016) 35; cited from earlier work.

As to `Cc1ccc(NC(=O)c2ccc(C)c(C(F)(F)F)c2)cc1C#Cc1nn(C2CCC(O)CC2)c2ncnc(N)c12` (stereo not shown) [LY‐1816, N‐(3‐((4‐amino‐1‐(4‐hydroxycyclohexyl)‐1H‐pyrazolo[3,4‐d]pyrimidin‐3‐yl)ethynyl)‐4‐methylphenyl)‐4‐methyl‐3‐(trifluoromethyl)benzamide], the IC50 was above 10 µM.
